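Following 48 hours of exposure in 96-well plates, responses at five concentrations were used to interpolate endpoints linearly. TGI: concentration producing complete growth inhibition.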
Assays:
Assay in all cases: growth of human tumour cells (NCI), 48 h
A549 NSCLC = tested on: A549 NSCLC
HS 578T breast = tested on: HS 578T breast
IGROV1 ovarian = tested on: IGROV1 ovarian
K-562 leukemia = tested on: K-562 leukemia
MDA-MB-231 breast = tested on: MDA-MB-231 breast
NCI/ADR-RES ovarian = tested on: NCI/ADR-RES ovarian
OVCAR-4 ovarian = tested on: OVCAR-4 ovarian
SF-268 CNS = tested on: SF-268 CNS
SK-MEL-28 melanoma = tested on: SK-MEL-28 melanoma
SR leukemia = tested on: SR leukemia

| SMILES | TGI (A549 NSCLC) [µM] | TGI (HS 578T breast) [µM] | TGI (IGROV1 ovarian) [µM] | TGI (K-562 leukemia) [µM] | TGI (MDA-MB-231 breast) [µM] | TGI (NCI/ADR-RES ovarian) [µM] | TGI (OVCAR-4 ovarian) [µM] | TGI (SF-268 CNS) [µM] | TGI (SK-MEL-28 melanoma) [µM] | TGI (SR leukemia) [µM] |
| --- | --- | --- | --- | --- | --- | --- | --- | --- | --- | --- |
| Cc1cc(C)nc(NC(=S)Nc2ccc(Cl)cc2)c1 | > 100 | > 100 | > 100 | > 100 | > 100 | > 100 | 61.1 | > 100 | > 100 | > 100 |
| N=C(N)c1ccc(N=Nc2c(O)ccc3cc(O)ccc23)cc1 | > 100 | > 100 | > 100 | > 100 | > 100 | > 100 | > 100 | > 100 | > 100 | > 100 |
| COC(=O)c1ccccc1/C=C1\Cc2ccc3ccccc3c2C1C (stereo not given) | > 100 | > 100 | > 100 | > 100 | > 100 | > 100 | > 100 | > 100 | > 100 | > 100 |
| O=C1NC2=NN=C(c3ccc(Br)cc3)CN2NC12c1ccccc1-c1ccccc12 | > 100 | > 100 | > 100 | > 100 | > 100 | > 100 | > 100 | > 100 | > 100 | > 100 |
| CCCCCC(/C=C/[C@@H]1[C@@H](C(O)CCCCCC(=O)OC)C(=O)C[C@H]1O[Si](C)(C)C(C)(C)C)OCOCCOC (stereo not given in full) | > 68.2 | 27.2 | 20.9 | > 52 | 44.1 | 51.8 | 40.9 | 28.4 | 33.3 | > 31.6 |
| CC(=O)O[C@H]1C[C@H]2[C@@H]([C@H](OC(C)=O)C[C@@H]3CC4(CC[C@@]32C)OOC2(CCCCC2)OO4)[C@@H]2CC[C@H]([C@H](C)CCC(=O)O)[C@@]12C | 12.8 | 9.32 | 3.9 | 23.7 | 34.1 | 19 | 9.38 | 26.8 | 24 | 8.3 |
| N#C[C@H](C(=O)c1ccccc1F)c1nc2ccccc2[nH]1 | > 100 | > 100 | > 100 | > 100 | > 100 | > 100 | > 100 | > 100 | > 100 | > 100 |
| CN(CCCNC(=O)c1c2ccc3ccccc3c2nn1C)CCCNC(=O)c1c2ccc3ccccc3c2nn1C | 26.9 | 30.3 | 23.3 | 12 | 25.8 | 29.3 | 24 | 25.6 | 4.6 | 13 |
| CCOC(=O)C1=C(C)N(CC(C)C)C2(O)C(OC)CC(=O)C3C(=O)N(c4ccccc4)C(=O)C132 (stereo not given) | > 100 | > 100 | 40.2 | > 100 | > 100 | > 100 | > 100 | > 100 | 70.1 | 49.9 |
| O=C1Nc2ccccc2C1S(=O)(=O)c1ccccc1 (stereo not given) | > 100 | > 100 | > 100 | > 100 | > 100 | > 100 | > 100 | > 100 | > 100 | > 100 |
| COc1cccc(Nc2nc(NS(=O)(=O)c3cc(C)c(Cl)cc3S)n[nH]2)c1 | > 100 | > 100 | > 100 | > 100 | > 100 | > 100 | > 100 | > 100 | > 100 | > 100 |
| CCOc1cc2c(cc1O)CC[C@@H]1[C@@H]2CC[C@]2(C)[C@@H](O)CC[C@@H]12 | 48.1 | > 82.8 | 56.1 | 6.24 | 6.67 | 8.98 | > 100 | 48.5 | 77.5 | 1.02 |
| COCCOCCOCCC(=O)NC1CC2CCC1(C)C2(C)C (stereo not given) | > 100 | > 100 | > 100 | > 100 | > 100 | > 100 | > 100 | > 100 | > 100 | > 100 |
| O=C(O)Cc1ccc(Oc2nc3ccccc3nc2-c2ccccc2)cc1 | > 100 | > 100 | > 100 | > 100 | > 100 | > 100 | > 100 | > 100 | > 100 | > 100 |
| C/C(=N\Nc1nc2ccccc2n1C)c1ccc2ccccc2n1 | 16.1 | 63.8 | 2.74 | 10.6 | 28.8 | 6.71 | 0.954 | 19.2 | 37.3 | 3.73 |
| Clc1ccc(Cn2cc(/C=N/n3cnnc3)c3ccccc32)cc1 | > 100 | > 100 | > 100 | > 100 | 74.5 | > 100 | > 100 | > 100 | > 100 | > 100 |
| O/N=C1\CSc2ccccc2C1 | > 100 | > 100 | > 100 | > 100 | > 100 | > 100 | > 100 | > 100 | > 100 | > 100 |
